These results are taken from patent US20070190628A1, “Yeast food composition for fuel ethanol production” (priority 2006, published 2007).

Holding throughout (type): cell-based, Saccharomyces cerevisiae
For test [1], the system named is active dry yeast “z”. Put plainly: Individual nutritive elements added to normal gravity corn mash: fermentation rate and viable cell numbers. The procedure: Normal gravity corn mash was prepared using ground #2 yellow dent corn obtained from Commercial Alcohols Inc. (275 Bloomfield Road, Chatham, Ontario, Canada N7M 5J5). […] One part by weight of ground corn was dispersed into three parts of 50° C., sterile dH2O containing 1 mM CaCl2.2H2O. To minimize the development of excessive viscosity during gelatinization, 1.25 mL of high temperature (HT-2X) α-amylase such as was supplied by Alltech Inc. in Nicholasville, Ky., USA (HT-2X α-amylase is no longer available from Alltech), was added per litre of mash as the ground corn was dispersed. It should be noted that if Ca-independent alpha amylases are used such as Termamyl® SC supplied by Novozymes North America in Franklinton, N.C., USA, then the 1 mM CaCl2.2H2O is not required. Following the addition of the ground corn and a five-minute mixing period to produce a homogenous mixture, the temperature was increased until the mash reached 94° C. where it was held at this temperature for 60 min with continued stirring. The temperature of the gelatinized starch was then reduced to 80° C. and liquefied by a second dose of HT-2X αx-amylase (1.25 mL/L) with continued stirring for 30 min. Sterile Celstir® (Wheaton Scientific, Millville, N.J.) fermentor vessels were filled with 1 L aliquots of this mash. To each fermentor vessel, filter-sterilized (25 mm, 0.2 μm Acrodisc® syringe filter, Pall Corporation, Ann Arbor, Mich.) urea (Fisher Scientific, Co., NJ), was added to achieve a final concentration of 8 mM. Cold-sterilization of the mash was assured by the addition of 100 μL of diethyl pyrocarbonate (DEPC, Sigma Chemical Co.) per litre of mash mixing the mash mechanically (IKA-Labortechnik, Staufen, Germany) for 5-10 min followed by cooling the fermentor vessels at 4° C. cold room for ˜72 hrs. The fermentor vessels were then removed from the cold room, connected to 30° C. water bath circulators and mixed. Glucoamylase in the form of Allcholase II 400 supplied by Alltech Inc. was then added (1.5 mL/L mash) 30 min prior to yeast inoculation to initiate saccharification of the dextrins formed during gelatinization and liquefaction (it should be noted that Allcholase II 400 is no longer available and any glucoamylase may be used). The mash thus prepared contained 19-20 g of dissolved solids/100 mL of mash as determined by a digital density meter analyzer (model DMA-45, Anton Paar KG, Graz, Austria) maintained at 20° C.
Eleven grams of a commercially available active dry yeast, designated as “z”, were rehydrated by dispersal in 99 mL of preheated 38° C., 0.1% (w/v) sterile water and incubation for 20 min with periodic shaking in a 38° C. water bath. Fermentor vessels containing normal density corn mash were prepared as described above and inoculated with sufficient active yeast to provide an initial viable cell count of 1×10^7 cells per mL mash. The optimal fermentation temperature for the active dry yeast “z” was determined by conducting fermentations at 30°, 34°, 36°, 38°, and 40° C.
The effects of individual elements on yeast cell biomass production and fermentation in a fermentation feedstock were assessed by separately supplementing of corn mash with nitrogen, phosphorus, magnesium, sulphur and zinc. Nitrogen effects were assessed in corn mashes by the additions of urea to provide final concentrations in the mash of […]. Phosphorus effects were assessed in corn mashes amended with 16 mM urea, by the additions of (NH4)2HPO4 (BDH Chemicals Inc, Toronto, Ont., MW: 132.06) to provide final concentrations of 0, 0.1, 0.2, 0.4, 0.6, and 0.8 g of (NH4)2HPO4/L of mash. Magnesium effects were assessed in corn mashes amended with 16 mM urea, by the additions of MgSO4.7H2O (BDH Chemicals Inc., MW. 246.48) to provide final concentrations of 0, 0.025, 0.049, 0.074, 0.099, 0.148, 0.197 g of MgSO4.7H2O/L of mash. […]

The test system of test [2] is active dry yeast “b”. Put plainly: Fermentation performance of commercial active dry yeasts in normal gravity corn mash. To be noted: strain “b”. How it is done:
(§1) The effects of the defined urea plus salts-based yeast food on fermentation performance of seven commercial active dry yeasts currently used by the fuel alcohol industry (Bellisimi et al., 2005, Am. Soc. Brew. Chem. J. Vol. 63, pp. 107-112) and designated herein as strains “b”, “d”, “e”, “w”, “x”, “y”, and “z”, were assessed in normal gravity corn mash prepared as described in Example 1. The commercial active dry yeasts were assessed with the following corn mash supplanted as follows: (a) 8 mM urea (control), or (b) 1% yeast extract, or (c) 8 mM urea supplemented with the defined urea plus salts yeast food of the present invention. The fermentation methods were followed as outlined in Example 4. Fermentation rates were determined by repeated sampling and sample processing at specific time intervals as described in Example 1.

Test [3] has as its system active dry yeast “d”. The test is described as above. To be noted: strain “d”. How it is done: as §1
Test [4] deals with active dry yeast “e”. Described as above. The conditions noted are these: strain “e”. How it is done:
as §1

The test system of test [5] is active dry yeast “w”. The test is described as above. To be noted: strain “w”. How it is done:
as §1

Test [6] concerns active dry yeast “x”. Described as above. The conditions noted are these: strain “x”. How it is done:
as §1

Test [7] concerns active dry yeast “z”. Described as above. The conditions noted are these: strain “z”. How it is done: as §1
Where [8] appears, read: complete disappearance of 20 g of dissolved solids/100 mL.

As for `NC(N)=O` [urea], in test [1] (corn mash with 8 mM and 16 mM urea), the “highest yeast cell counts” value is 3.3×10^8 CFU/mL. Moreover, the “increase of cell numbers” value in test [1] (corn mash with 8 mM and 16 mM urea, versus no urea) worked out at 50%. For the same compound, the “increase of the rate of dissolved solids utilization” value in test [1] (urea 16-32 mM in corn mash, 30° C.) is “approximately 2 fold”. In test [1] (urea tested up to 32 mM), the “urea supplementation rate at which the maximum fermentation rate was observed” value was 16 mM. Moreover, the Fermentation rate in test [2] (normal gravity corn mash) is listed as 0.73 ± 0.04 g/100 mL/hr; in test [3] (normal gravity corn mash), 0.74 ± 0.03 g/100 mL/hr; in test [4] (normal gravity corn mash) it was 0.67 ± 0.01 g/100 mL/hr; in test [5] (normal gravity corn mash), 0.82 ± 0.02 g/100 mL/hr; in test [6] (normal gravity corn mash), 0.80 ± 0.06 g/100 mL/hr; in test [7] (normal gravity corn mash) it was 0.79 ± 0.01 g/100 mL/hr. Moreover, the Fermentation time in test [2] (setting [8]) was 72 h; in test [3] (setting [8]), 48 h; in test [4] (setting [8]) it was 72 h; in test [5] (setting [8]), 48 h; in test [6] (setting [8]) it was 48 h; in test [7] (setting [8]), 48 h.
